# Results as given in patent US12472224B2, “Ready-to-use bivalirudin compositions” (MAIA Pharmaceuticals, Inc., priority 2019, dated 2025).
# Columns and labels:
# [1] = Toxicokinetics of bivalirudin in satellite animals of the rat study (plasma concentrations); conditions: both sexes, Sprague-Dawley, in vivo, iv, 24 hours after termination of dosing, 7 out of 23 samples, all others below 50 ng/mL, read-out: plasma bivalirudin concentration at the 24-hour timepoint
# Procedure: The infusion rate was 2.5 mL/kg/h for all groups. A separate set of satellite animals (6/sex/group) were administered the same set of materials and used for evaluating the toxicokinetics (TK) of bivalirudin at 5 minutes and 24 hours after termination of dosing (3 animals/sex/group/timepoint). See Table 16b for group allocation. All animals were sacrificed on Day 16, one day following the end of the 14-day infusion.
# Mean plasma concentrations of bivalirudin at C5 were similar in males treated with the high-dose (250 mg/kg/day) of MAIA Bivalirudin Injection or Sandoz Bivalirudin, and only slightly lower (approximately 20% lower) in the female treated with MAIA Bivalirudin than in the females treated with Sandoz Bivalirudin. However, it must be noted that data are available from just one female for the MAIA product, due to premature deaths or inability to collect blood.
# Whole human blood = assay: Hemolysis study; type: cell-based
# Procedure: Briefly, human whole blood was collected from a single donor (K2EDTA anticoagulant). The donor blood was analyzed for hemoglobin content in triplicate using an Advia 120 hematology analyzer. The dynamic mixing of drug infusate in human whole blood was simulated in this in vitro study by incubating the diluted test, reference and placebo items at a blood:formulation ratio of 1:0.75, corresponding to a final bivalirudin concentration of 2.14 mg/mL. Blood was mixed with either bivalirudin for injection as described herein, Angiomax®, a bivalirudin placebo, or 0.9% saline. The mixture as incubated at 37° C. (±5° C.) for 30 minutes. Negative controls containing only blood (whole blood control) or blood mixed with 0.9% saline at a blood:saline ratio of 1:0.75 (0.9% NaCl control) were also prepared. A positive control containing blood mixed 1:1 with 1% saponin was also prepared. All control tubes were incubated at 37° C. (±5° C.) for 30 minutes. […] During the incubation tubes containing the test and reference item mixed with saline were prepared to check if the test or reference item interfered with the absorbance readings. […] The percent hemolysis of each sample was calculated based on the hemoglobin content of the supernatant, expressed as a percentage of hemoglobin content of the donor sample, after correcting for dilution and interference from the sample, if any.
Compound,level at 24 h [1],% Hemolysis (Whole human blood),% hemolysis (positive control) (Whole human blood)
CC[C@H](C)[C@H](NC(=O)[C@H](CCC(=O)O)NC(=O)[C@H](CCC(=O)O)NC(=O)[C@H](Cc1ccccc1)NC(=O)[C@H](CC(=O)O)NC(=O)CNC(=O)[C@H](CC(N)=O)NC(=O)CNC(=O)CNC(=O)CNC(=O)CNC(=O)[C@@H]1CCCN1C(=O)[C@H](CCCNC(=N)N)NC(=O)[C@@H]1CCCN1C(=O)[C@H](N)Cc1ccccc1)C(=O)N1CCC[C@H]1C(=O)N[C@@H](CCC(=O)O)C(=O)N[C@@H](CCC(=O)O)C(=O)N[C@@H](Cc1ccc(O)cc1)C(=O)N[C@@H](CC(C)C)C(=O)O [bivalirudin],50.5 to 159 ng/mL,–,–
saponin,–,100.0 ± 0.8%,100%
